Measurements taken from patent publication US20240148749A1 (priority 2021, published 2024).
“Also recorded” adds a separate entry of the source.

Assays:
microglial cells = assay: Microglial ROS/RNS, antioxidant defense and bioenergetic/mitochondrial parameters at 21 days; assay type: in vivo, mouse
Protocol: (§1) Data shown are mean values (±SD). Gray bars represent MnTBAP-treated mice from either CLP or control groups, and black bars represent placebo-treated mice from either CLP or Control groups. Two-way analyses of variance (ANOVAs) (CLP vs control×MnTBAP vs Placebo) were performed. When a significant interaction was observed, planned comparisons were performed for the CLP/Placebo group against the three other groups. The significance of the planned comparisons is indicated with asterisks (*p<0.05, **p<0.01, ***p<0.001, ****p<0.0001) .
as §1, with “Control×MnTBAP” for “control×MnTBAP”, “****p<0.0001).” for “****p<0.0001) .”
(§2) MnTBAP is commercially available: it is for example manufactured by Sigma-Aldrich, Calbiochem, etc. For use it is dissolved following the guidance provided by the manufacturer.
Brains were collected for cell dissociation and Cdllb-positive cell separation using a magnetic coupled antibody (MACS® Technology), according to the manufacturer's protocol (Miltenyi Biotec, Bergisch Gladbach, Germany) and as previously described (Schang et al., 2014). In brief, mice were intracardially perfused with NaCl 0,9%. The brains are then dissociated using the Neural Tissue Dissociation Kit containing trypsin and the gentleMACS Octo Dissociator with Heaters. From the resulting brain homogenate, cd11 b-positive cells were enriched using the anti-cd11 b MicroBeads. After elution the isolated cells were centrifuged for 5 min at 200G and conserved at −80° C.
Total RNA was isolated from cells using the RNAeasy Micro kit (Qiagen), and reverse-transcribed using Superscript® III Reverse transcriptase (Invitrogen). Real-time quantitative PCR was performed in duplicate for each sample using Power Sybr Green PCR Master Mix (Applied Biosystems) and the rate of dye incorporation was monitored using the StepOne™ Plus RealTime PCR system (Applied Biosystems). Data were analyzed by StepOne Plus RT PCR software v2.1 and Microsoft excel. Amplification specificity was assessed with a melting curve analysis. TBP transcript levels were used for normalisation of each target (=ΔCT). Real-time PCR CT values were analyzed using the 2^−(ΔCt) method to calculate the fold expression (Schmittgen et al., 2008). The data are presented as relative mRNA units with respect to control group (expressed as fold over control value). Primer sequences available upon request.
Microglial cells and brain samples were resuspended in lysis buffer (50 mM TrisHCI pH 7.5, 150 mM NaCl, 1% Triton X-100, 0.1% SDS, 1 mM EDTA, and protease inhibitor mixture), mechanically homogenized with a piston, briefly vortexed and incubated for 30 min at 4° C. Lysed samples were briefly centrifuged to remove debris, and the whole supernatant extract was collected. Aliquots of the supernatant were immediately used for the assessment of ROS level, RNS level, dual ROS/RNS level, SOD activity, and Acetyl-Coa level. The protein content was determined with the Bradford reagent (Sigma-Aldrich).
Both ROS and RNS were measured by incubating CellROX (Life Technologies) with 30 μg of freshly extracted total proteins for 45 min at 37° C. in the dark in 96-wells plate in triplicate. Fluorescence intensity was measured using near-infra-red fluorescence setting with the plate reader Odyssey Infrared Imaging system scanner and Odyssey application software v3.0 (LI-COR Biosciences, Lincoln, NE).
SOD activity was measured with Superoxide Dismutase Activity Colorimetric Assay kit (Abcam, ab65354), following the manufacturer's instructions. […]

control and CLP mice = assay: Novel Object Recognition test (NOR); assay type: in vivo, mouse; details: septic (CLP) mice, systemic MnTBAP treatment
Protocol: as §1, with “Control×MnTBAP” for “control×MnTBAP”, “****p<0.0001).” for “****p<0.0001) .”
as §2
Twice a week after the CLP, survival mice were gently handled for at least four 5-min sessions to habituate to the experimenter. Then, 20 and 21 days after CLP, mice were submitted to the novel object location (NOL) and novel object recognition (NOR) tests. […]
The familiarization sessions consisted on 10 min of free exploration of two identical objects, placed inside the same open field arena that the mice had visited on the previous day. […] Then, the percentage of exploration of the new object was calculated, reflecting the retention of the familiar object memory at long-term (24 h). […]

[1] = CLP mice + MnTBAP compared to CLP-placebo mice, 21 days
[2] = CLP mice + MnTBAP vs CLP-placebo, 21 days after sepsis, remained different from Control-Placebo
[3] = MnTBAP in control mice vs Control-placebo mice
[4] = MnTBAP in control mice vs Control-placebo mice, p<0.0001
[5] = MnTBAP in control mice vs Control-placebo mice, p=0.0003

Compound: O=C(O)c1ccc(/C2=C3\C=CC(=N3)/C(c3ccc(C(=O)O)cc3)=c3/cc/c4[n]3[Mn]([Cl])[n]3c2ccc3/C(c2ccc(C(=O)O)cc2)=C2/C=CC(=N2)\C=4c2ccc(C(=O)O)cc2)cc1 [MnTBAP, Manganese (III) tetrakis (4-benzoic acid)porphyrin chloride]
- microglial OXPHOS/glycolysis ATP balance (microglial cells; [1]): strong microglial metabolic shift from mitochondrial OXPHOS to glycolysis
- microglial PGC1 alpha expression (microglial cells; [1]): increase
- microglial mtDNA content (microglial cells; [1]): strong mtDNA content increase
- microglial mtRNA 16S expression (microglial cells; [1]): strong increase
- microglial mtRNA CytB expression (microglial cells; [1]): strong increase
- microglial NRF2 transcript expression (microglial cells; [2]): significantly increasing
- microglial ROS/RNS levels (microglial cells; [2]): significantly increasing
- microglial SOD1 transcript expression (microglial cells; [2]): significantly increasing
- microglial SOD2 transcript expression (microglial cells; [2]): significantly increasing
- microglial SOD activity (microglial cells; [2]): significantly increasing
- microglial catalase transcript expression (microglial cells; [2]): significantly increasing
- sepsis-induced microglial reprogramming and alterations (microglial cells; CLP mice, 21 days after sepsis): successfully reversed
- microglial bioenergetic metabolite acetyl-CoA level (microglial cells; CLP mice, systemic MnTBAP treatment, FIG. 8): reduction
- microglial ATP generation (microglial cells; [3]): did not affect
- microglial SOD activity (microglial cells; [3]): did not affect
- microglial glycolysis contribution (microglial cells; [3]): did not affect
- microglial mtDNA content (microglial cells; MnTBAP in control mice vs Control-placebo mice, 0.01): reduced
- microglial NRF2 expression (microglial cells; [4]): slightly reduced
- microglial SOD1 expression (microglial cells; [4]): slightly reduced
- microglial mtRNA 16S level (microglial cells; [4]): reduced
- microglial mtRNA CytB level (microglial cells; [4]): reduced
- microglial PGC1 alpha expression (microglial cells; [5]): reduced
- microglial SOD2 expression (microglial cells; [5]): slightly reduced
- microglial catalase expression (microglial cells; MnTBAP in control mice vs Control-placebo mice, p=0.0036): slightly reduced
- microglial ROS/RNS levels (microglial cells; MnTBAP in control mice vs Control-placebo mice, p=0.005): slightly reduced
- cognition / long-term cognitive function (control and CLP mice): restored cognition; also recorded: successfully restores long-term cognitive function
